Laboratory results reported in ChEMBL document CHEMBL4196079, “Molecular interaction of novel benzothiazolyl triazolium analogues with calf thymus DNA and HSA-their biological investigation as potent antimicrobial agents” (Eur J Med Chem, 2018).
Converted amounts (≈) assume the structure as drawn.

Tests used:
Micrococcus luteus = test: Antibacterial activity against Micrococcus luteus ATCC 4698 after 24 hrs by micro broth dilution method; format: functional; settings: ATCC 4698, 24 h
Saccharomyces cerevisiae = test: Antifungal activity against Saccharomyces cerevisiae after 24 hrs by NCCLS micro broth dilution method; format: functional
Escherichia coli [1] = test: Antibacterial activity against Escherichia coli JM109 after 24 hrs by NCCLS micro broth dilution method; format: functional; settings: JM109, 24 h
Aspergillus flavus = test: Antifungal activity against Aspergillus flavus after 24 hrs by NCCLS micro broth dilution method; format: functional
Bacillus = test: Antibacterial activity against Bacillus proteus ATCC 13315 after 24 hrs by NCCLS micro broth dilution method; format: functional; settings: ATCC 13315, 24 h
Staphylococcus aureus [2] = test: Antibacterial activity against methicillin-resistant Staphylococcus aureus N315 after 24 hrs by NCCLS micro broth dilution method; format: functional; settings: N315, 24 h
Staphylococcus aureus [3] = test: Antibacterial activity against Staphylococcus aureus ATCC 25923 after 24 hrs by NCCLS micro broth dilution method; format: functional; settings: ATCC 25923, 24 h
Bacillus subtilis = test: Antibacterial activity against Bacillus subtilis ATCC 21216 after 24 hrs by NCCLS micro broth dilution method; format: functional; settings: ATCC 21216, 24 h
Pichia norvegensis = test: Antifungal activity against Candida mycoderma after 24 hrs by NCCLS micro broth dilution method; format: functional
Salmonella typhi = test: Antibacterial activity against Salmonella typhi after 24 hrs by NCCLS micro broth dilution method; format: functional, Salmonella enterica subsp. enterica serovar Typhi; settings: Salmonella enterica
Cyberlindnera jadinii = test: Antifungal activity against Candida utilis after 24 hrs by NCCLS micro broth dilution method; format: functional; settings: Williopsis jadinii
Pseudomonas aeruginosa = test: Antibacterial activity against Pseudomonas aeruginosa ATCC 27853 after 24 hrs by NCCLS micro broth dilution method; format: functional; settings: ATCC 27853, 24 h
Candida albicans = test: Antifungal activity against Candida albicans ATCC 76615 after 24 hrs by NCCLS micro broth dilution method; format: functional; settings: ATCC 76615, 24 h
Escherichia coli [4] = test: Antibacterial activity against Escherichia coli DH52 after 24 hrs by NCCLS micro broth dilution method; format: functional; settings: DH52, 24 h
Shigella dysenteriae = test: Antibacterial activity against Shigella dysenteriae after 24 hrs by NCCLS micro broth dilution method; format: functional

Row | Structure (SMILES) | MIC (Micrococcus luteus) [µg/mL] | MIC (Saccharomyces cerevisiae) [µg/mL] | MIC (Escherichia coli [1]) [µg/mL] | MIC (Aspergillus flavus) [µg/mL] | MIC (Bacillus) [µg/mL] | MIC (Staphylococcus aureus [2]) [µg/mL] | MIC (Staphylococcus aureus [3]) [µg/mL] | MIC (Bacillus subtilis) [µg/mL] | MIC (Pichia norvegensis) [µg/mL] | MIC (Salmonella typhi) [µg/mL] | MIC (Cyberlindnera jadinii) [µg/mL] | MIC (Pseudomonas aeruginosa) [µg/mL] | MIC (Candida albicans) [µg/mL] | MIC (Escherichia coli [4]) [µg/mL] | MIC (Shigella dysenteriae) [µg/mL]
1 | Clc1ccc(Cn2cc(COCc3c(-c4ccccc4)nc4sc5ccccc5n34)nn2)cc1 | 64 (≈ 132 µM) | 16 (≈ 32.9 µM) | 128 (≈ 263 µM) | 256 (≈ 527 µM) | 64 (≈ 132 µM) | 64 (≈ 132 µM) | 64 (≈ 132 µM) | 128 (≈ 263 µM) | 32 (≈ 65.8 µM) | 64 (≈ 132 µM) | 64 (≈ 132 µM) | 128 (≈ 263 µM) | 32 (≈ 65.8 µM) | 64 (≈ 132 µM) | 128 (≈ 263 µM)
2 | CCOc1ccc2c(c1)sc1nc(-c3ccccc3)c(COCc3cn(Cc4cccc(Cl)c4)nn3)n12 | 128 (≈ 241 µM) | 64 (≈ 121 µM) | 128 (≈ 241 µM) | 128 (≈ 241 µM) | 512 (≈ 966 µM) | 128 (≈ 241 µM) | 128 (≈ 241 µM) | 64 (≈ 121 µM) | 32 (≈ 60.4 µM) | 16 (≈ 30.2 µM) | 32 (≈ 60.4 µM) | 64 (≈ 121 µM) | 32 (≈ 60.4 µM) | 64 (≈ 121 µM) | 64 (≈ 121 µM)
3 | Clc1ccc(Cn2cc(COCc3c(-c4ccccc4)nc4sc5ccccc5n34)nn2)cc1Cl | 32 (≈ 61.5 µM) | 64 (≈ 123 µM) | 64 (≈ 123 µM) | 256 (≈ 492 µM) | 8 (≈ 15.4 µM) | 16 (≈ 30.7 µM) | 64 (≈ 123 µM) | 16 (≈ 30.7 µM) | 32 (≈ 61.5 µM) | 64 (≈ 123 µM) | 64 (≈ 123 µM) | 16 (≈ 30.7 µM) | 32 (≈ 61.5 µM) | 64 (≈ 123 µM) | 32 (≈ 61.5 µM)
4 | Fc1ccc(Cn2cc(COCc3c(-c4ccccc4)nc4sc5ccccc5n34)nn2)cc1 | 128 (≈ 273 µM) | 64 (≈ 136 µM) | 128 (≈ 273 µM) | 256 (≈ 545 µM) | 128 (≈ 273 µM) | 64 (≈ 136 µM) | 128 (≈ 273 µM) | 128 (≈ 273 µM) | 32 (≈ 68.2 µM) | 128 (≈ 273 µM) | 16 (≈ 34.1 µM) | 128 (≈ 273 µM) | 32 (≈ 68.2 µM) | 128 (≈ 273 µM) | 128 (≈ 273 µM)
5 | CCOc1ccc2c(c1)sc1nc(-c3ccccc3)c(COCc3cn(Cc4ccccc4F)nn3)n12 | 128 (≈ 249 µM) | 64 (≈ 125 µM) | 128 (≈ 249 µM) | 128 (≈ 249 µM) | 64 (≈ 125 µM) | 128 (≈ 249 µM) | 128 (≈ 249 µM) | 256 (≈ 498 µM) | 32 (≈ 62.3 µM) | 128 (≈ 249 µM) | 16 (≈ 31.2 µM) | 128 (≈ 249 µM) | 32 (≈ 62.3 µM) | 128 (≈ 249 µM) | 64 (≈ 125 µM)
6 | Fc1cccc(Cn2cc(COCc3c(-c4ccccc4)nc4sc5ccccc5n34)nn2)c1 | 128 (≈ 273 µM) | 32 (≈ 68.2 µM) | 16 (≈ 34.1 µM) | 128 (≈ 273 µM) | 64 (≈ 136 µM) | 16 (≈ 34.1 µM) | 128 (≈ 273 µM) | 64 (≈ 136 µM) | 8 (≈ 17 µM) | 128 (≈ 273 µM) | 8 (≈ 17 µM) | 128 (≈ 273 µM) | 16 (≈ 34.1 µM) | 32 (≈ 68.2 µM) | 128 (≈ 273 µM)
7 | O=[N+]([O-])c1ccc(Cn2cc(COCc3c(-c4ccccc4)nc4sc5ccccc5n34)nn2)cc1 | 64 (≈ 129 µM) | 32 (≈ 64.4 µM) | 4 (≈ 8.06 µM) | 256 (≈ 516 µM) | 32 (≈ 64.4 µM) | 32 (≈ 64.4 µM) | 32 (≈ 64.4 µM) | 64 (≈ 129 µM) | 32 (≈ 64.4 µM) | 8 (≈ 16.1 µM) | 32 (≈ 64.4 µM) | 64 (≈ 129 µM) | 32 (≈ 64.4 µM) | 16 (≈ 32.2 µM) | 32 (≈ 64.4 µM)
8 | CCn1cc(C(=O)O)c(=O)c2cc(F)c(N3CCNCC3)cc21 [NORFLOXACIN] | 2 (≈ 6.26 µM) | – | 1 (≈ 3.13 µM) | – | 8 (≈ 25.1 µM) | 8 (≈ 25.1 µM) | 2 (≈ 6.26 µM) | 4 (≈ 12.5 µM) | – | 4 (≈ 12.5 µM) | – | 16 (≈ 50.1 µM) | – | 1 (≈ 3.13 µM) | 16 (≈ 50.1 µM)
9 | Clc1cccc(Cn2cc(COCc3c(-c4ccccc4)nc4sc5ccccc5n34)nn2)c1 | 32 (≈ 65.8 µM) | 64 (≈ 132 µM) | 64 (≈ 132 µM) | 128 (≈ 263 µM) | 64 (≈ 132 µM) | 32 (≈ 65.8 µM) | 64 (≈ 132 µM) | 32 (≈ 65.8 µM) | 16 (≈ 32.9 µM) | 64 (≈ 132 µM) | 32 (≈ 65.8 µM) | 32 (≈ 65.8 µM) | 8 (≈ 16.5 µM) | 64 (≈ 132 µM) | 32 (≈ 65.8 µM)
10 | CCOc1ccc2c(c1)sc1nc(-c3ccccc3)c(COCc3cn(Cc4ccc(Cl)cc4)nn3)n12 | 32 (≈ 60.4 µM) | 64 (≈ 121 µM) | 64 (≈ 121 µM) | 128 (≈ 241 µM) | 64 (≈ 121 µM) | 64 (≈ 121 µM) | 64 (≈ 121 µM) | 64 (≈ 121 µM) | 16 (≈ 30.2 µM) | 64 (≈ 121 µM) | 64 (≈ 121 µM) | 32 (≈ 60.4 µM) | 32 (≈ 60.4 µM) | 64 (≈ 121 µM) | 64 (≈ 121 µM)
11 | Clc1ccc(Cn2cc(COCc3c(-c4ccccc4)nc4sc5ccccc5n34)nn2)c(Cl)c1 | 32 (≈ 61.5 µM) | 64 (≈ 123 µM) | 64 (≈ 123 µM) | 256 (≈ 492 µM) | 32 (≈ 61.5 µM) | 32 (≈ 61.5 µM) | 64 (≈ 123 µM) | 64 (≈ 123 µM) | 32 (≈ 61.5 µM) | 64 (≈ 123 µM) | 32 (≈ 61.5 µM) | 8 (≈ 15.4 µM) | 32 (≈ 61.5 µM) | 16 (≈ 30.7 µM) | 64 (≈ 123 µM)
12 | OC(Cn1cncn1)(Cn1cncn1)c1ccc(F)cc1F [FLUCONAZOLE] | – | 16 (≈ 52.2 µM) | – | 256 (≈ 836 µM) | – | – | – | – | 4 (≈ 13.1 µM) | – | 8 (≈ 26.1 µM) | – | 1 (≈ 3.27 µM) | – | –
